Reference: USRE39300E1, “Inhibiting the development of tolerance to and/or dependence on an addictive substance” (Virginia Commonwealth University Medical College of Virginia, priority 1993, dated 2006)

Legend:
Sprague-Dawley rats [1] = assay: Development of morphine tolerance with systemic treatment, tail-flick test; format: in vivo, rat; settings: for inhibition of the development of morphine tolerance: FIG. 6
rats [2] = assay: Health observations (death, grooming, weight loss) during the morphine tolerance experiment; settings: for overall toxicity: conclusion of Example 4; for rats that died due to drug administration: GM1 or dextrorphan treatment groups; for grooming and weight: ganglioside GM1 or dextrorphan treatment groups
Sprague-Dawley rats [3] = assay: Naloxone-produced jumping (withdrawal symptom) in morphine-treated rats; format: in vivo, rat
rats [4] = assay: Development of morphine tolerance with intrathecal treatment, tail-flick test; format: in vivo, rat; settings: for analgesic effect of morphine (tail-flick latency) on day 8: 100 or 50 nmol intrathecal immediately before each morphine 10 μg; for dose relation of the prevention of morphine tolerance: intrathecal; for prevention of the development of morphine tolerance: intrathecal administration immediately before each once daily intrathecal morphine sulfate 10 μg, FIGS. 7-10
Protocol: Morphine sulfate 10 μg was delivered once daily through an intrathecal (spinal) canula implanted 5 days before the first morphine injection. Ganglioside GM1 or saline also was delivered intrathecally 30 minutes before each morphine injection.
Intrathecal ganglioside GM1 was given 30 min before each morphine administration. […] Vertical bars are standard errors. Maximal possible effects (MPE) were calculated by the formula % MPE=[(TL−BL)/(10−BL)]×100. TL: actual tail-flick latency; BL: baseline latency obtained before the first morphine injection; 10: cut-off time for radiant heat stimulation.
Calmodulin is an intracellular colactor necessary for the nitric oxide pathway that can be initiated upon NMDA receptor activation. […] Each data point in FIGS. 7-10 represents the mean of a group of rats (n=6) and standard errors are shown by vertical lines. The asterisks refer to statistical differences (α=0.05) between the saline group and each other group.

C[C@]12N[C@H](Cc3ccccc31)c1ccccc12 [MK 801, 5-methyl-10,11-dihydro-SH-dibenzo[a,d]cyclohepten-5,10-imine]
inhibition of the development of morphine tolerance (Sprague-Dawley rats [1]; MK 801 0.3 mg/kg): inhibited the development of morphine tolerance
rats that died before the completion of the experiment (rats [2]; 0.3 mg/kg, 3 out of 6): 50%
grooming and weight of the remaining rats (rats [2]; MK 801 0.3 mg/kg): apparently poor grooming and weight loss
overall toxicity (rats [2]): severe cytotoxic effects

CN1CC[C@]23CCCC[C@H]2[C@H]1Cc1ccc(O)cc13 [dextrorphan, (+)-3-hydroxy-N-methylmorphinan]
analgesic effect of the morphine on coadministration (Sprague-Dawley rats [1]; coadministration of dextrorphan with morphine): remains substantially unaffected
prevention of the development of morphine tolerance (tail-flick latency) (Sprague-Dawley rats [1]; dextrorphan 1.56, 3.13, 6.25, 12.5 mg/kg i.p. 30 min prior to each morphine 10 mg/kg s.c. twice daily, vs saline control, FIG. 1): potently prevented the development of morphine tolerance
incidence of jumping after naloxone 2 mg/kg s.c. (Sprague-Dawley rats [3]; dextrorphan 3.13 and 6.25 mg/kg, morphine 10 mg/kg twice daily for 9 days, vs MOR+SAL, FIG. 2): significantly reduced the incidence of jumping
rats that died due to drug administration (rats [2]): None
overall toxicity (rats [2]): nontoxic
grooming and weight (rats [2]): continued to appear well groomed and did not show weight loss

Cl.NCCCCCCNS(=O)(=O)c1cccc2c(Cl)cccc12 [W-7, N-(6-aminohexyl)-5-chloro-1-naphthalenesulfonamide hydrochloride]
analgesic effect of morphine (tail-flick latency) on day 8 (rats [4]): showed a reliable analgesic effect of morphine
dose relation of the prevention of morphine tolerance (rats [4]): 100=50 nmol>25=12.5 nmol
prevention of the development of morphine tolerance (rats [4]): effectively prevent the development of morphine tolerance

CN1CCN(CCCN2c3ccccc3Sc3ccc(C(F)(F)F)cc32)CC1 [TFP, trifluoperazine]
analgesic effect of morphine (tail-flick latency) on day 8 (rats [4]): showed a reliable analgesic effect of morphine
dose relation of the prevention of morphine tolerance (rats [4]): 100=50 nmol>25=12.5 nmol
prevention of the development of morphine tolerance (rats [4]): effectively prevent the development of morphine tolerance

CN1CC[C@]23c4c5ccc(O)c4O[C@H]2[C@@H](O)C=C[C@H]3[C@H]1C5.O=S(=O)(O)O [morphine, morphine sulfate]
post-drug tail-flick latency scores (Sprague-Dawley rats [1]; measured 1 hour after drug administration, first 5 days of daily administration, morphine 10 mg/kg s.c. twice daily, baseline 4-5 seconds): ~10 s
response to morphine (tolerance), control group (Sprague-Dawley rats [1]; morphine 10 mg/kg s.c. twice daily + saline, at 7 and 9 days): marked reduction in response to morphine
response to morphine (tolerance), control group (rats [4]; once daily intrathecal morphine 10 μg + saline, Day 8, each tested time point): marked reduction in response to morphine
tolerance to the analgesic effect (tail-flick latencies vs baseline, day 1) (rats [4]; once daily intrathecal morphine sulfate 10 μg and saline for 7 consecutive days): developed tolerance to the analgesic effect or morphine

ganglioside GM1
inhibition of the development of morphine tolerance (Sprague-Dawley rats [1]; ganglioside GM1 60 mg/kg): inhibited the development of morphine tolerance to the degree equivalent to that induced by 0.3 mg/kg MK 801
tail flick latency versus saline-treated rats (Sprague-Dawley rats [1]; ganglioside GM1 10, 30, 60 mg/kg systemic, 1 hour before each morphine, days 5, 7, 9 and 10 of repeated morphine, FIG. 3): remained significantly longer than that of saline-treated rats
comparison of doses for prevention of morphine tolerance (Sprague-Dawley rats [1]; ganglioside GM1 systemic, 10, 30, 60 mg/kg, FIG. 3): 30 and 60 mg/kg were more effective at days 9 and 10 than 10 mg/kg
number of jumps after naloxone 2 mg/kg s.c. (Sprague-Dawley rats [3]; GM1 10, 30 and 60 mg/kg systemic, morphine 10 mg/kg twice daily for 9 days, vs MOR+SAL, FIG. 4): effective
most effective dose tested against naloxone-produced jumping (Sprague-Dawley rats [3]; GM1 systemic, doses 10, 30, 60 mg/kg): 60 mg/kg
prevention of morphine tolerance (maximal possible effects, % MPE) (rats [4]; intrathecal ganglioside GM1 30 min before each once daily intrathecal morphine 10 μg, Day 8, 15-240 minutes after morphine, vs saline, FIG. 5): effectively prevented the development of morphine tolerance
order of doses, maximal possible analgesia effects of morphine (rats [4]; intrathecal ganglioside GM1, Day 8): 160 nmol>80=40 nmol
rats that died due to drug administration (rats [2]): None
overall toxicity (rats [2]): nontoxic
grooming and weight (rats [2]): continued to appear well groomed and did not show weight loss
